Reference: patent US8101760B2, “Glucocorticoid receptor modulator and methods of use” (Eli Lilly and Company, priority 2007, dated 2012)

Target: T1, human AR (androgen receptor) (Homo sapiens, UniProt P10275)
T1 construct: expressed in transfected cells; host or cells: HEK293 (lysate, '293-AR lysate')
T1 sequence (P10275 1-920): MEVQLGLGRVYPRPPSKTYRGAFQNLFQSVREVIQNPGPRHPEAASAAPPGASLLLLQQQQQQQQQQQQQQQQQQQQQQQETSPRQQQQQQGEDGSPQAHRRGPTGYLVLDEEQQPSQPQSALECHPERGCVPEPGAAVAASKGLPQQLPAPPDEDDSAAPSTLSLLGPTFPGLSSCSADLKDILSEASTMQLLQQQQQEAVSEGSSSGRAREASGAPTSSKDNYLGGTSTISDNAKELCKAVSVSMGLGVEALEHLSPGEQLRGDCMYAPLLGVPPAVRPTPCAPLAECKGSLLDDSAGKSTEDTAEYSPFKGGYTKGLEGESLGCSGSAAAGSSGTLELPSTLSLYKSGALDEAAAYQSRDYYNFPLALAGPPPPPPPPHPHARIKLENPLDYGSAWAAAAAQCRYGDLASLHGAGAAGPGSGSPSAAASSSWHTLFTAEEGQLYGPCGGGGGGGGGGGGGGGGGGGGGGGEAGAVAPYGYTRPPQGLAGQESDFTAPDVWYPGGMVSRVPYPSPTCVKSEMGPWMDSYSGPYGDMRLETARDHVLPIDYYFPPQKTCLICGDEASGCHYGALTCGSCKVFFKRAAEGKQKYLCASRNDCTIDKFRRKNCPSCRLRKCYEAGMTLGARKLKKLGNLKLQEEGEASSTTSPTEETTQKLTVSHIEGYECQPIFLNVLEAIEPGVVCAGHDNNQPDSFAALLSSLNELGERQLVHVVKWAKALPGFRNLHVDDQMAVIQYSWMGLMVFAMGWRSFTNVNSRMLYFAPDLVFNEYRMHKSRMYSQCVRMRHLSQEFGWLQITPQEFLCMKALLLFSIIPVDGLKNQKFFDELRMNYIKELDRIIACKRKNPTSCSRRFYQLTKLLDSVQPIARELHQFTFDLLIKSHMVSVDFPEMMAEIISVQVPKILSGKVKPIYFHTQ
Test: Nuclear hormone receptor binding assay, AR
Method: Cell lysates from human embryonic kidney HEK293 cells overexpressing human GR (glucocorticoid receptor), AR (androgen receptor), MR (mineralocorticoid receptor), or PR (progesterone receptor) are used for receptor-ligand competition binding assays to determine Ki values.
Briefly, steroid receptor competition binding assays are run in a buffer containing 20 mM Hepes buffer (pH=7.6), 0.2 mM EDTA, 75 mM NaCl, 1.5 mM MgCl2, 20% glycerol, 20 mM sodium molybdate, 0.2 mM DTT (dithiothreitol), 20 μg/mL aprotinin and 20 μg/mL leupeptin. Typically, steroid receptor binding assays include radio-labeled ligands, such as 0.3 nM [^3H]-dexamethasone for GR binding, 0.36 nM [^3H]-methyltrienolone for AR binding, 0.25 nM [^3H]-aldosterone for MR binding, and 0.29 nM [^3H]-methyltrienolone for PR binding, and either 20 μg 293-GR lysate, 22 μg 293-AR lysate, 20 μg 293-MR lysate or 40 μg 293-PR lysate per well. Assays are typically run in 96-well format. Competing test compounds are added at various concentrations ranging from about 0.01 nM to 10 μM. Non-specific binding is determined in the presence of 500 nM dexamethasone for GR binding, 500 nM aldosterone for MR binding, or 500 nM methyltrienolone for AR and PR binding. […] After an incubation of 2 hours, plates are read in a Wallac Microbeta counter. […]

SMILES: CC/C(=C1\c2ccc(Cl)cc2OCc2ncccc21)c1cccc(NS(C)(=O)=O)c1 [Compound (I), (E)-N-{3-[1-(8-Chloro-11H-10-oxa-1-aza-dibenzo[a,d]cyclohepten-5-ylidene)-propyl]-phenyl}-methanesulfonamide]
- Ki (HEK293 cell lysate expressing human AR, [3H]-methyltrienolone, mean of 5 determinations): 16.2 nM
- greater affinity for GR relative to AR (binding selectivity GR vs AR): ≥ 30 fold
